We go through one compound from patent US20240306639A1, “USE OF FLUAZIFOP-P-BUTYL FOR INSECT CONTROL” (priority 2021, published 2024).

In this assay the test system is Bemisia tabaci (Silverleaf whitefly). Nature of the assay: Curative control of Bemisia tabaci second nymph stage (N2) on French beans, spray application. It is filed as in vivo. The source says:
Examples 1 to 3 describe biological tests relating to the curative and preventative control of a series of insects with the spray application of dilutions of a formulation containing fluazifop-P-butyl as sole active ingredient (EC125 formulation (FUSILADE MAX®)) in combination with OCHIMAR adjuvant (Syngenta-alkyl ester of phosphoric acid (752 g/L EC formulation)) to bean or cabbage plants infested with Bemisia tabaci, Frankliniella occidentalis or Myzus persicae. The testing protocols and insect control effects are shown. • ai=active ingredient (fluazifop-P-butyl).
Curative control of Bemisia tabaci (Silverleaf whitefly), second nymph stage (N2), treated on French beans (BBCH12):
• All treatments including check were applied with 250 mL adjuvant (Ochima) per hectare (ha).

For `CCCCOC(=O)[C@@H](C)Oc1ccc(Oc2ccc(C(F)(F)F)cn2)cc1` [fluazifop-P-butyl, butyl (2R)-2-[4-[5-(trifluoromethyl)pyridin-2-yl]oxyphenoxy]propanoate], the “efficacy against whiteflies compared to thrips or aphids” value (conclusion from the data in Tables 1 to 3) was “selective efficacy”. Besides, for the setting “effect enhanced compared to aphids and thrips”, the controlling whitefly result was “highly effective”.
